Source: patent publication US9693997B2, “Antiviral compounds” (priority 2013, dated 2017)
Where a name gives a salt, the structure may show the parent alone.

Legend:
Assay in all cases: microbe, parasite or virus in culture
[1] = test system: Pseudotyped HCV GT1b particles (HCVpp), entry into Huh7-high CD81 cells; type: cell-based, HCV GT1b Con1 strain; settings: Hepatitis C virus, GT1B, 72 h, read-out: HCVpp GT-1b (EC50, μM)
[2] = test system: Pseudotyped HCV GT1a particles (HCVpp), entry into Huh7-high CD81 cells; type: cell-based, HCV GT1a H77 strain; settings: Hepatitis C virus, 72 h, read-out: HCVpp GT-1a (EC50, μM)
[3] = test system: pseudotyped VSV G particles (VSVpp) in Huh7-high CD81 cells; type: cell-based, vesicular stomatitis virus; settings: Vesicular stomatitis virus, 72 h, read-out: VSVpp (EC50, μM)

Structure (SMILES)	EC50 [1]	EC50 [2]	EC50 [3]
CC(C)S(=O)(=O)c1ccc(-c2c(F)cc(Nc3n[nH]c(N)n3)cc2Cl)cc1 [Compound 23, N*3*-[2-Chloro-6-fluoro-4′-(propane-2-sulfonyl)-biphenyl-4-yl]-1H-[1,2,4]triazole-3,5-diamine]	0.092 µM	0.023 µM	> 10 µM
CNS(=O)(=O)c1ccc(-c2c(Cl)cc(Nc3n[nH]c(N)n3)cc2Cl)cc1 [Compound 118, 4′-(5-Amino-1H-[1,2,4]triazol-3-ylamino)-2′,6′-dichloro-biphenyl-4-sulfonic acid methylamide]	0.013 µM	0.004 µM	4.24 µM
CN(C)S(=O)(=O)c1ccc(-c2c(Cl)cc(Nc3n[nH]c(N)n3)cc2C(F)(F)F)cc1 [Compound 185, 4′-(5-amino-1H-1,2,4-triazol-3-ylamino)-2′-chloro-N,N-dimethyl-6′-(trifluoromethyl)biphenyl-4-sulfonamide]	0.052 µM	0.015 µM	11.7 µM
Nc1nc(Nc2cc(Cl)c(-c3ccc(S(=O)(=O)N4CCNCC4)cc3)c(C(F)(F)F)c2)n[nH]1 [Compound 33, N*3*-[2-Chloro-4′-(piperazine-1-sulfonyl)-6-trifluoromethyl-biphenyl-4-yl]-1H-[1,2,4]triazole-3,5-diamine]	0.099 µM	0.019 µM	34.3 µM
CS(=O)(=O)c1cccc(-c2c(F)cc(Nc3nc(N)n[nH]3)cc2C(F)(F)F)c1 [Compound 74, N^5-(2-Fluoro-3′-(methylsulfonyl)-6-trifluoromethylbiphenyl-4-yl)-1H-[1,2,4]-triazole-3,5-diamine]	0.169 µM	0.055 µM	16.9 µM
Nc1nc(Nc2cc(Cl)c(-c3ccc(N4CCCS4(=O)=O)cc3)c(Cl)c2)n[nH]1 [Compound 289, N-3-[2,6-Dichloro-4′-(1,1-dioxo-1,6-isothiazolidin-2-yl)-biphenyl-4-yl]-1H-[1,2,4]triazole-3,5-diamine]	0.046 µM	0.002 µM	17.8 µM
Cc1ccc(-c2c(Cl)cc(Nc3n[nH]c(N)n3)cc2Cl)cc1 [Compound 97, N-3-(2,6-Dichloro-4′-methyl-biphenyl-4-yl)-1H-[1,2,4]triazole-3,5-diamine]	0.704 µM	0.007 µM	9.33 µM
COc1ccc(-c2c(Cl)cc(Nc3n[nH]c(N)n3)cc2Cl)cc1 [Compound 98, N-3-(2,6-Dichloro-4′-methoxy-biphenyl-4-yl)-1H-[1,2,4]triazole-3,5-diamine]	0.353 µM	0.01 µM	5.25 µM
Nc1nc(Nc2cc(Cl)c(-c3ccc(OCC4CNC4)cc3)c(Cl)c2)n[nH]1 [Compound 32, N*3*-[4′-(Azetidin-3-ylmethoxy)-2,6-dichloro-biphenyl-4-yl]-1H-[1,2,4]triazole-3,5-diamine; hydrochloride]	0.116 µM	0.006 µM	6.1 µM
COc1ccc(-c2c(Cl)cc(Nc3n[nH]c(N)n3)cc2C(F)(F)F)cc1S(=O)(=O)N1CCN(C(=O)OC(C)(C)C)CC1 [Compound 166, tert-butyl 4-(4′-(5-amino-1H-1,2,4-triazol-3-ylamino)-2′-chloro-4-methoxy-6′-(trifluoromethyl)biphenyl-3-ylsulfonyl)piperazine-1-carboxylate]	0.005 µM	0.003 µM	> 10 µM
CN(C)S(=O)(=O)c1ccc(-c2c(F)cc(Nc3n[nH]c(N)n3)cc2Cl)cc1 [Compound 34, 4′-(5-Amino-1H-[1,2,4]triazol-3-ylamino)-2′-chloro-6′-fluoro-biphenyl-4-sulfonic acid dimethylamide]	0.122 µM	0.028 µM	> 10 µM
Nc1nc(Nc2cc(Cl)c(-c3ccc(Cl)c(Cl)c3)c(Cl)c2)n[nH]1 [Compound 102, N-3-(2,6,3′,4′-Tetrachloro-biphenyl-4-yl)-1H-[1,2,4]triazole-3,5-diamine]	0.931 µM	0.062 µM	6.33 µM
CNC(=O)c1cccc(-c2c(Cl)cc(Nc3n[nH]c(N)n3)cc2Cl)c1 [Compound 117, 4′-(5-Amino-1H-[1,2,4]triazol-3-ylamino)-2′,6′-dichloro-biphenyl-3-carboxylic acid methylamide]	0.218 µM	0.011 µM	26.1 µM
Nc1nc(Nc2cc(Cl)c(-c3ccc(Cl)cc3)c(Cl)c2)n[nH]1 [Compound 96, N-3-(2,6,4′-Trichloro-biphenyl-4-yl)-1H-[1,2,4]triazole-3,5-diamine]	0.927 µM	0.009 µM	4.27 µM
CS(=O)(=O)c1ccc(-c2c(Cl)cc(Nc3n[nH]c(N)n3)cc2Cl)cc1 [Compound 94, N3-(2,6-Dichloro-4′-(methylsulfonyl)biphenyl-4-yl)-1H-1,2,4-triazole-3,5-diamine]	0.174 µM	0.007 µM	2 µM
COc1cc(-c2c(Cl)cc(Nc3n[nH]c(N)n3)cc2C(F)(F)F)ccc1S(=O)(=O)NC(C)(C)C [Compound 179, 4′-(5-amino-1H-1,2,4-triazol-3-ylamino)-N-tert-butyl-2′-chloro-3-methoxy-6′-(trifluoromethyl)biphenyl-4-sulfonamide]	0.02 µM	0.002 µM	8.55 µM
Nc1nc(Nc2ccc(-c3cccc(F)c3)c(Cl)c2)n[nH]1 [Compound 148, N*3*-(2-Chloro-3′-fluoro-biphenyl-4-yl)-1H-[1,2,4]triazole-3,5-diamine]	3.34 µM	0.301 µM	33.8 µM
Nc1nc(Nc2cc(Cl)c(-c3ccc(F)cc3)c(Cl)c2)n[nH]1 [Compound 286, N3-(2,6-dichloro-4′-fluorobiphenyl-4-yl)-1H-1,2,4-triazole-3,5-diamine]	0.64 µM	0.018 µM	13.6 µM
CS(=O)(=O)Nc1ccc(-c2c(Cl)cc(Nc3n[nH]c(N)n3)cc2Cl)cc1 [Compound 111, N-[4′-(5-Amino-1H-[1,2,4]triazol-3-ylamino)-2′,6′-dichloro-biphenyl-4-yl]-methanesulfonamide]	0.039 µM	0.003 µM	7.53 µM
Nc1nc(Nc2ccc(-c3ccc(NC(=O)CCCC[C@@H]4SC[C@@H]5NC(=O)N[C@@H]54)cc3)cc2)n[nH]1 (stereo in doubt) [Compound 54, 5-((3aS,4S,6aR)-2-Oxo-hexaneahydro-thieno[3,4-d]imidazol-4-yl)-pentanoic acid [4′-(5-amino-1H-[1,2,4]triazol-3-ylamino)-biphenyl-4-yl]-amide]	10 µM	5.73 µM	> 10 µM
Nc1nc(Nc2cc(Cl)c(-c3ccc4c(c3)CC(=O)N4)c(Cl)c2)n[nH]1 [Compound 254]	0.051 µM	0.003 µM	12.9 µM
CN(C)C(=O)c1cccc(-c2c(Cl)cc(Nc3n[nH]c(N)n3)cc2Cl)c1 [Compound 115, 4′-(5-Amino-1H-[1,2,4]triazol-3-ylamino)-2′,6′-dichloro-biphenyl-3-carboxylic acid dimethylamide]	0.107 µM	0.007 µM	34.8 µM
Nc1nc(Nc2cc(Cl)c(-c3ccccc3F)c(Cl)c2)n[nH]1 [Compound 287, N3-(2,6-dichloro-2′-fluorobiphenyl-4-yl)-1H-1,2,4-triazole-3,5-diamine]	0.366 µM	0.005 µM	13 µM
Nc1nc(Nc2cc(Cl)c(-c3ccc(OC[C@@H]4CCCN4)cc3)c(Cl)c2)n[nH]1 [Compound 265, N*3*-[2,6-Dichloro-4′-((S)-1-pyrrolidin-2-ylmethoxy)-biphenyl-4-yl]-1H-[1,2,4]triazole-3,5-diamine]	0.063 µM	0.005 µM	17.9 µM
Nc1nc(Nc2cc(Cl)c(-c3ccc(C(F)(F)F)cc3)c(Cl)c2)n[nH]1 [Compound 99, N-3-(2,6-Dichloro-4′-trifluoromethyl-biphenyl-4-yl)-1H-[1,2,4]triazole-3,5-diamine]	1.57 µM	0.056 µM	20.6 µM
COc1ccc(-c2c(Cl)cc(Nc3n[nH]c(N)n3)cc2C(F)(F)F)cc1S(=O)(=O)N1CCOCC1 [Compound 177, N3-(2-chloro-4′-methoxy-3′-(morpholinosulfonyl)-6-(trifluoromethyl)biphenyl-4-yl)-1H-1,2,4-triazole-3,5-diamine]	0.018 µM	0.003 µM	23.4 µM
CS(=O)(=O)NCc1ccc(-c2c(Cl)cc(Nc3n[nH]c(N)n3)cc2Cl)cc1 [Compound 12, N-[4′-(5-Amino-1H-[1,2,4]triazol-3-ylamino)-2′,6′-dichloro-biphenyl-4-ylmethyl]-methanesulfonamide]	0.035 µM	0.003 µM	18.3 µM
N#Cc1cccc(-c2c(Cl)cc(Nc3n[nH]c(N)n3)cc2Cl)c1 [Compound 103, 4′-(5-Amino-1H-[1,2,4]triazol-3-ylamino)-2′,6′-dichloro-biphenyl-3-carbonitrile]	0.269 µM	0.025 µM	13.3 µM
COc1ccc(-c2c(Cl)cc(Nc3n[nH]c(N)n3)cc2C(F)(F)F)cc1S(=O)(=O)NC(C)(C)CO [Compound 218, 4′-(5-Amino-1H-[1,2,4]triazol-3-ylamino)-6′-chloro-4-methoxy-2′-trifluoromethyl-biphenyl-3-sulfonic acid (2-hydroxy-1,1-dimethyl-ethyl)-amide]	0.005 µM	0.003 µM	20.3 µM
CS(=O)(=O)Nc1cccc(-c2c(Cl)cc(Nc3n[nH]c(N)n3)cc2Cl)c1 [Compound 112, N-[4′-(5-Amino-1H-[1,2,4]triazol-3-ylamino)-2′,6′-dichloro-biphenyl-3-yl]-methanesulfonamide]	0.048 µM	0.006 µM	15.3 µM
